Consider one molecule from US20040204368A1, “Oxadiazole derivative compounds and drugs containing these compounds as the active ingredient” (priority 2001, published 2004).

The target in this experiment is T1, Cathepsin K (Homo sapiens, UniProt P43235).
T1 sequence (P43235 115-329): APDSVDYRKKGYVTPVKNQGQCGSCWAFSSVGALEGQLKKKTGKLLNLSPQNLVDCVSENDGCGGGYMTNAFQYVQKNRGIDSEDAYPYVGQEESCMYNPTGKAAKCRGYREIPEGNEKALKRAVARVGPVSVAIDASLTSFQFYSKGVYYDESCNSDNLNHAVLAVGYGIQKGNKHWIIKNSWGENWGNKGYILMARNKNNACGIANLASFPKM
Nature of the experiment: Measurement of cathepsin K inhibitory activity. As to conditions: Dixon plot, pH 5.5, 37° C. The format is biochemical. Here is the method:
(i) Measurement of Cathepsin K Inhibitory Activity
65 μL of Cathepsin K enzyme reaction buffer (50 mmol/L of 2-(N-morpholino)ethanesulfonate, 2 mmol/L of ethylene diamine tetraacetate (EDTA) and 4 mmol/L of dithio threitol (DTT) were mixed to adjust to pH 5.5), 5 μL of cysteine protease inhibitor solution of several concentrations, 20 μL of synthesized substrate (t-butyloxycarbonyl-L-alanyl-glycyl-L-prolyl-L-arginine-4-methyl-chromanyl-7-amide) solution of several concentrations and 10 μL of cathepsin K enzyme solution were mixed and the increase of fluorescence intensity when reacted at 37° C. was measured (Ex (excitation wavelength)=355 nm, Em (fluorescence wavelength)=460 nm). As to the substrate and the compound of the present invention, enzyme reactions were carried out in combination of several appropriate concentrations and Dixon plotting was prepared, to define the absolute value of X-coordinate of the intersection point of the graph as Ki value.

The Ki is a dissociation constant, usually derived from enzyme kinetics or from competition with a known ligand.

Turning to `CC(C)CC(NC(=O)C1CCCCCC1)C(=O)c1nnc(SCCN(C)C)o1` (stereo not shown) [example 1], the Ki came out at 48 nM.
